Data reported in patent US20200368312A1 (priority 2017, published 2020).
Values after ≈ are worked out from the molar mass of the structure shown. Where two headings read alike, the source gives them in different places.

Experiments:
S. haemolyticus (CoNS) = experiment: Broth microdilution MIC, S. haemolyticus (CoNS) (Table 7); type: cell-based; details: S. haemolyticus (CoNS) MMX 529 ATCC 29970
Streptococci = experiment: Broth microdilution MIC, Streptococci (Example 11, Table 7); type: cell-based
S. epidermidis (CoNS) = experiment: Broth microdilution MIC, S. epidermidis (CoNS) (Table 7); type: cell-based
C. perfringens = type: cell-based
S. hominis (CoNS) = experiment: Broth microdilution MIC, S. hominis (CoNS) (Table 7); type: cell-based; details: S. hominis (CoNS) MMX 667 ATCC 27844
S. lugdenensis (CoNS) = experiment: Broth microdilution MIC, S. lugdenensis (CoNS) (Table 7); type: cell-based; details: S. lugdenensis (CoNS) MMX 8724
P. anaerobius = experiment: Broth microdilution MIC, P. anaerobius (Table 7); type: cell-based; details: P. anaerobius MMX 1208 ATCC 27337
P. micros = experiment: Broth microdilution MIC, P. micros (Table 7); type: cell-based; details: P. micros MMX 3546
Enterococci = type: cell-based
P. acnes = experiment: Broth microdilution MIC, P. acnes (Table 7); type: cell-based
Staphylococcus aureus = experiment: microbe, parasite or virus in culture; type: cell-based; details: for MIC: Staphylococcus aureus, read-out: MIC
[1] = tested on: quality control strain ATCC 29213 (MSSA); experiment: MIC, CLSI-guided broth susceptibility testing (Example 10); type: cell-based, Staphylococcus aureus
Description: (§1) MIC Testing: Glycopeptide compounds were dissolved in 100% DMSO. In vitro activities were determined using CLSI-guided broth susceptibility testing to measure drug minimum inhibitory concentrations (MICs) of the compounds against the quality control strain ATCC 29213 (MSSA) and the MRSA isolate ATCC BAA-1556. Glycopeptides are defined as compounds of Formula (I), and their respective R^1, R^2, R^3 and R^4 groups. X is —O— for each compound in Table 2.

[2] = tested on: MRSA isolate ATCC BAA-1556; experiment: as above; type: cell-based, Staphylococcus aureus
Description: as §1

CN[C@H](CC(C)C)C(=O)N[C@H]1C(=O)N[C@@H](CC(N)=O)C(=O)N[C@H]2C(=O)N[C@H]3C(=O)N[C@H](C(=O)N[C@H](C(=O)O)c4cc(O)cc(O)c4-c4cc3ccc4O)[C@H](O)c3ccc(c(Cl)c3)Oc3cc2cc(c3O[C@@H]2O[C@H](CO)[C@@H](O)[C@H](O)[C@H]2O[C@H]2C[C@](C)(N)[C@H](O)[C@H](C)O2)Oc2ccc(cc2Cl)[C@H]1O [Vancomycin]
MIC (S. haemolyticus (CoNS)): 1 µg/mL (≈ 0.69 µM) | MIC (Streptococci; S. agalactiae MMX 427 ATCC 13813): 0.25 µg/mL (≈ 0.173 µM) | MIC (Streptococci; S. agalactiae MMX 4088): 0.25 µg/mL (≈ 0.173 µM) | MIC (Streptococci; S. agalactiae MMX 4115, erm^R): 0.25 µg/mL (≈ 0.173 µM) | MIC (Streptococci; S. anginosus (AGS) MMX 1201 ATCC 33397): 0.5 µg/mL (≈ 0.345 µM) | MIC (Streptococci; S. constellatus (AGS) MMX 5677): 0.25 µg/mL (≈ 0.173 µM) | MIC (Streptococci; S. dysgalactiae MMX 5121): 0.25 µg/mL (≈ 0.173 µM) | MIC (Streptococci; S. dysgalactiae MMX 5123): 0.5 µg/mL (≈ 0.345 µM) | MIC (Streptococci; S. dysgalactiae MMX 5124): 0.25 µg/mL (≈ 0.173 µM) | MIC (Streptococci; S. mitis (MGS) MMX 1205 ATCC 49456): 0.5 µg/mL (≈ 0.345 µM) | MIC (Streptococci; S. mitis (MGS) MMX 5798): 0.25 µg/mL (≈ 0.173 µM) | MIC (Streptococci; S. oralis (MGS) MMX 5821): 0.25 µg/mL (≈ 0.173 µM) | MIC (Streptococci; S. pneumoniae MMX 432, PRSP): 0.25 µg/mL (≈ 0.173 µM) | MIC (Streptococci; S. pneumoniae MMX 747): 0.12 µg/mL (≈ 0.0828 µM) | MIC (Streptococci; S. pneumoniae MMX 1195 ATCC 49619, PISP): 0.25 µg/mL (≈ 0.173 µM) | MIC (Streptococci; S. pyogenes MMX 404 ATCC 19615): 0.25 µg/mL (≈ 0.173 µM) | MIC (Streptococci; S. pyogenes MMX 946, ermR): 0.25 µg/mL (≈ 0.173 µM) | MIC (Streptococci; S. pyogenes MMX 8778): 0.25 µg/mL (≈ 0.173 µM) | MIC (S. epidermidis (CoNS); S. epidermidis (CoNS) MMX 762, MRSE): 2 µg/mL (≈ 1.38 µM) | MIC (S. epidermidis (CoNS); S. epidermidis (CoNS) MMX 5145, MRSE): 1 µg/mL (≈ 0.69 µM) | MIC (C. perfringens): 0.5 µg/mL (≈ 0.345 µM) | MIC (S. hominis (CoNS)): 0.5 µg/mL (≈ 0.345 µM) | MIC (S. lugdenensis (CoNS)): 0.5 µg/mL (≈ 0.345 µM) | MIC (P. anaerobius): 0.25 µg/mL (≈ 0.173 µM) | MIC (P. micros): 0.5 µg/mL (≈ 0.345 µM) | MIC (Enterococci; E. faecalis MMX 101 ATCC 29212, VSE): 2 µg/mL (≈ 1.38 µM) | MIC (Enterococci; E. faecalis MMX 1086, VanA VRE): > 64 µg/mL | MIC (Enterococci; E. faecalis MMX 4176): 1 µg/mL (≈ 0.69 µM) | MIC (Enterococci; E. faecium MMX 173, VanB VRE): > 64 µg/mL | MIC (Enterococci; E. faecium MMX 851, VanA VRE): > 64 µg/mL | MIC (Enterococci; E. faecium MMX 4204): 0.5 µg/mL (≈ 0.345 µM) | MIC (P. acnes; P. acnes MMX 7942 ATCC 6919): 0.25 µg/mL (≈ 0.173 µM) | MIC (P. acnes; P. acnes MMX 7946 ATCC 11827): 0.25 µg/mL (≈ 0.173 µM) | RV40 activity as compared to Comparator (Staphylococcus aureus): 86 × | MIC (Staphylococcus aureus; ATCC 33591 / MRSA, S. aureus MMX 5717 ATCC 33591, MRSA): 1 µg/mL (≈ 0.69 µM) | MIC (Staphylococcus aureus; ATCC BAA-1756 / MRSA, S. aureus MMX 2011 ATCC BAA-1756, MRSA): 1 µg/mL (≈ 0.69 µM) | MIC (Staphylococcus aureus; MRSA, S. aureus MMX 2010, MRSA): 1 µg/mL (≈ 0.69 µM) | MIC (Staphylococcus aureus; MRSA, S. aureus MMX 3982, MRSA): 0.5 µg/mL (≈ 0.345 µM) | MIC (Staphylococcus aureus; MRSA, S. aureus MMX 5985, MRSA): 0.5 µg/mL (≈ 0.345 µM) | MIC (Staphylococcus aureus; MRSA, S. aureus MMX 5999, MRSA): 0.5 µg/mL (≈ 0.345 µM) | MIC (Staphylococcus aureus; MRSA, S. aureus MMX 7899, MRSA): 0.5 µg/mL (≈ 0.345 µM) | MIC (Staphylococcus aureus; MRSA, S. aureus MMX 7900, MRSA): 0.5 µg/mL (≈ 0.345 µM) | MIC (Staphylococcus aureus; MRSA, S. aureus MMX 7901, MRSA): 0.5 µg/mL (≈ 0.345 µM) | MIC (Staphylococcus aureus; MRSA, S. aureus MMX 7902, MRSA): 1 µg/mL (≈ 0.69 µM) | MIC (Staphylococcus aureus; MRSA, S. aureus MMX 7903, MRSA): 1 µg/mL (≈ 0.69 µM) | MIC (Staphylococcus aureus; MSSA, S. aureus MMX 2490, MSSA): 1 µg/mL (≈ 0.69 µM) | MIC (Staphylococcus aureus; MSSA, S. aureus MMX 7907, MSSA): 0.5 µg/mL (≈ 0.345 µM) | MIC (Staphylococcus aureus; MSSA, S. aureus MMX 7908, MSSA): 1 µg/mL (≈ 0.69 µM) | MIC (Staphylococcus aureus; S. aureus MMX 4665, hVISA): 4 µg/mL (≈ 2.76 µM) | MIC (Staphylococcus aureus; S. aureus MMX 5989, Mu3, hVISA): 1 µg/mL (≈ 0.69 µM) | MIC (Staphylococcus aureus; VISA, S. aureus MMX 1723, Mu50, VISA): 8 µg/mL (≈ 5.52 µM) | MIC (Staphylococcus aureus; VISA, S. aureus MMX 2124, VISA, DaptoNS): 4 µg/mL (≈ 2.76 µM) | MIC (Staphylococcus aureus; VISA, S. aureus MMX 4658, VISA): 4 µg/mL (≈ 2.76 µM) | MIC (Staphylococcus aureus; VISA, S. aureus MMX 4660, VISA): 4 µg/mL (≈ 2.76 µM)

CNC(CC(C)C)C(=O)NC1C(=O)NC(CC(N)=O)C(=O)NC2C(=O)NC3C(=O)NC(C(=O)NC(C(=O)O)c4cc(O)cc(O)c4-c4cc3ccc4O)C(O)c3ccc(c(Cl)c3)Oc3cc2cc(c3OC2OC(CO)C(O)C(O)C2OC2CC(C)(NCc3ccc(-c4ccc(Cl)cc4)cc3)C(O)C(C)O2)Oc2ccc(cc2Cl)C1O (centres unmarked) [RV79]
MIC Values MSSA 29213 [1]: 0.016 µg/mL (≈ 0.0097 µM) | MIC Values MRSA 1556 [2]: 0.016 µg/mL (≈ 0.0097 µM)
